According to US9113629B2, “4-amino-6-(4-substituted-phenyl)-picolinates and 6-amino-2-(4-substituted-phenyl)-pyrimidine-4-carboxylates and their use as herbicides” (DOW AGROSCIENCES LLC, priority 2013, dated 2015):

Key:
Test in all cases: Post-emergent Test III, herbicidal activity in wheat and barley
Format in all cases: in vivo
[1] = system: MATSS: scented mayweed (Matricaria chamomilla), pineappleweed (Matricaria matricarioides); details: 21 days after application; for pest or weed control at 35 g/ha / pest or weed control at 70 g/ha: Matricaria chamomilla, post-emergence, 504 h, read-out: Visual Gorowth Reduction (%) 21 days After Application MATSS; for pest or weed control at 35 g/ha: 35 g ai/ha; for pest or weed control at 70 g/ha: 70 g ai/ha; for GR50 MATSS / GR80 MATSS: probit analysis; for GR50 MATSS: dose for 50 percent growth reduction; for GR80 MATSS: dose for 80 percent growth reduction
In short: (§1)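 GR20, GR50, GR80 and GR90 come from probit analysis of visual injury scores (0 = none, 100 = complete kill) taken 21 d after treatment. Foliar application was by track sprayer delivering 187 L/ha at five rates, from high down to 1/16×, onto greenhouse plants at the 2–3 leaf stage, with solvent-blank controls.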

[2] = system: HORSS: barley, including spring and winter (Hordeum vulgare); details: 21 days after application; for pest or weed control at 35 g/ha / pest or weed control at 70 g/ha: Hordeum vulgare, post-emergence, 504 h, read-out: Visual Gorowth Reduction (%) 21 days After Application HORSS; for pest or weed control at 35 g/ha: 35 g ai/ha; for pest or weed control at 70 g/ha: 70 g ai/ha; for GR20 HORSS: probit analysis, dose for 20 percent growth reduction (crop)
In short: as §1

[3] = system: KCHSC: kochia (Kochia scoparia); details: 21 days after application; for pest or weed control at 35 g/ha / pest or weed control at 70 g/ha: Bassia scoparia, post-emergence, 504 h, read-out: Visual Gorowth Reduction (%) 21 days After Application KCHSC; for pest or weed control at 35 g/ha: 35 g ai/ha; for pest or weed control at 70 g/ha: 70 g ai/ha; for GR50 KCHSC / GR80 KCHSC: probit analysis; for GR50 KCHSC: dose for 50 percent growth reduction; for GR80 KCHSC: dose for 80 percent growth reduction
In short: as §1

[4] = system: VERPE: bird's-eye speedwell (veronica persica); details: 21 days after application; for pest or weed control at 35 g/ha / pest or weed control at 70 g/ha: Veronica persica, post-emergence, 504 h, read-out: Visual Gorowth Reduction (%) 21 days After Application VERPE; for pest or weed control at 35 g/ha: 35 g ai/ha; for pest or weed control at 70 g/ha: 70 g ai/ha; for GR50 VERPE / GR80 VERPE: probit analysis; for GR50 VERPE: dose for 50 percent growth reduction; for GR80 VERPE: dose for 80 percent growth reduction
In short: as §1

[5] = system: SASKR: Russian thistle (Salsola iberica); details: 21 days after application; for pest or weed control at 35 g/ha / pest or weed control at 70 g/ha: Salsola tragus, post-emergence, 504 h, read-out: Visual Gorowth Reduction (%) 21 days After Application SASKR; for pest or weed control at 35 g/ha: 35 g ai/ha; for pest or weed control at 70 g/ha: 70 g ai/ha; for GR50 SASKR / GR80 SASKR: probit analysis; for GR50 SASKR: dose for 50 percent growth reduction; for GR80 SASKR: dose for 80 percent growth reduction
In short: as §1

[6] = system: VIOSS: wild pansy (Viola tricolor), field violet (Viola arvensis); details: 21 days after application; for pest or weed control at 35 g/ha / pest or weed control at 70 g/ha: Viola tricolor, post-emergence, 504 h, read-out: Visual Gorowth Reduction (%) 21 days After Application VIOSS; for pest or weed control at 35 g/ha: 35 g ai/ha; for pest or weed control at 70 g/ha: 70 g ai/ha; for GR50 VIOSS / GR80 VIOSS: probit analysis; for GR50 VIOSS: dose for 50 percent growth reduction; for GR80 VIOSS: dose for 80 percent growth reduction
In short: as §1

[7] = system: TRZSS: wheat, including spring and winter (Triticum aestivum); details: 21 days after application; for pest or weed control at 35 g/ha / pest or weed control at 70 g/ha: Triticum aestivum, post-emergence, 504 h, read-out: Visual Gorowth Reduction (%) 21 days After Application TRZSS; for pest or weed control at 35 g/ha: 35 g ai/ha; for pest or weed control at 70 g/ha: 70 g ai/ha; for GR20 TRZSS: probit analysis, dose for 20 percent growth reduction (crop)
In short: as §1

| SMILES | pest or weed control at 35 g/ha [1] [%] | pest or weed control at 70 g/ha [1] [%] | GR50 MATSS [1] [g ai/ha] | GR80 MATSS [1] [g ai/ha] | pest or weed control at 35 g/ha [2] [%] | pest or weed control at 70 g/ha [2] [%] | GR20 HORSS [2] [g ai/ha] | pest or weed control at 35 g/ha [3] [%] | pest or weed control at 70 g/ha [3] [%] | GR50 KCHSC [3] [g ai/ha] | GR80 KCHSC [3] [g ai/ha] | pest or weed control at 35 g/ha [4] [%] | pest or weed control at 70 g/ha [4] [%] | GR50 VERPE [4] [g ai/ha] | GR80 VERPE [4] [g ai/ha] | pest or weed control at 35 g/ha [5] [%] | pest or weed control at 70 g/ha [5] [%] | GR50 SASKR [5] [g ai/ha] | GR80 SASKR [5] [g ai/ha] | pest or weed control at 35 g/ha [6] [%] | also measured |
| --- | --- | --- | --- | --- | --- | --- | --- | --- | --- | --- | --- | --- | --- | --- | --- | --- | --- | --- | --- | --- | --- |
| Nc1c(F)c(-c2ccc(Br)cc2F)nc(C(=O)O)c1Cl [Compound 163] | 75 to 84 | 95 to 100 | 5 | 24 | 85 to 94 | 95 to 100 | 1 | 75 to 84 | 85 to 94 | 8 | 36 | 75 to 84 | 95 to 100 | 13 | 30 | 75 to 84 | 85 to 94 | 3 | 27 | 75 to 84 | pest or weed control at 70 g/ha [6]: 95 to 100%; GR50 VIOSS [6]: 14 g ai/ha; GR80 VIOSS [6]: 29 g ai/ha; pest or weed control at 35 g/ha [7]: 75 to 84%; pest or weed control at 70 g/ha [7]: 75 to 84%; GR20 TRZSS [7]: 1 g ai/ha |
| COc1c(N)nc(-c2ccc(I)cc2F)nc1C(=O)O [Compound 72] | 0 to 29 | 30 to 44 | 126 | >140 | 45 to 59 | 60 to 74 | 5 | 60 to 74 | 60 to 74 | 27 | 105 | 85 to 94 | 95 to 100 | 1 | 8 | 30 to 44 | 60 to 74 | 48 | 106 | 30 to 44 | pest or weed control at 70 g/ha [6]: 45 to 59%; GR50 VIOSS [6]: 67 g ai/ha; GR80 VIOSS [6]: >140 g ai/ha; pest or weed control at 35 g/ha [7]: 75 to 84%; pest or weed control at 70 g/ha [7]: 85 to 94%; GR20 TRZSS [7]: 1 g ai/ha |
